# Entries after “also recorded” stand apart in the source; their conditions may differ. Where two headings read alike, the source gives them in different places.
# Tests used:
# [1] = target: T1, Central DA1 receptor (Rattus norvegicus, UniProt P18901); assay: Binding study, rat striatum, [3H]-SCH23390
# T1 construct: from tissue; host or cells: rat striatum
# Description: (§1) The affinity of the enantiomers for adrenergic and dopaminergic receptors was tested by binding studies in cerebral and peripheral tissues. The results are reported in Table 1 compared with CHF 1024 racemate in terms of inhibition constant (Ki) expressed as nanomolar concentration (nM).
# [2] = target: Central DA2-receptor (Rattus norvegicus, UniProt P61169); assay: Binding study, rat striatum, [3H]-spiperone; conditions: for Ki: rat striatum, [3H]-spiperone
# Description: as §1
# [3] = target: Central α1-receptor; assay: Binding study, rat cerebral cortex, [3H]-prazosin
# Description: as §1
# [4] = target: Central α2-receptor; assay: Binding study, rat cerebral cortex, [3H]-rauwolscine; conditions: for Ki: rat cerebral cortex, [3H]-rauwolscine
# Description: as §1
# [5] = target: T2, β1-receptor (Rattus norvegicus, UniProt P18090); assay: Binding study, rat lung, [3H]-(−)dihydroalprenolol
# T2 construct: from tissue; host or cells: rat lung
# Description: as §1
# [6] = target: T3, β2-receptor (Rattus norvegicus, UniProt P10608); assay: Binding study, rat lung, [3H]-(−)dihydroalprenolol
# T3 construct: from tissue; host or cells: rat lung
# Description: as §1
# [7] = target: Pre-synaptic DA2 receptor (Oryctolagus cuniculus, UniProt G1T1Q0); assay: Electrically stimulated rabbit rectococcigeus muscle, inhibition of contraction; conditions: read-out: effectiveness (α)
# Description: (§2) The pharmacological activity of the enantiomers toward the same receptors was also tested in isolated tissue preparations. […] EC50 is the concentration inducing 50% of the maximal response and is expressed in mols/liter (M).
# [8] = target: Pre-synaptic DA2 and α2 receptor; assay: Perfused rabbit ear artery, inhibition of electrically-induced contraction; conditions: for pD2 (−log EC50): EC50 in M
# Description: as §2
# [9] = target: T4, β2-receptors (Cavia porcellus, UniProt Q8K4Z4); assay: Guinea-pig tracheal strips contracted with carbachol, relaxing effect
# T4 construct: was also tested in isolated tissue preparations; from tissue; host or cells: guinea-pig tracheal strips
# [10] = target: β1-receptor (Cavia porcellus, UniProt H0W3H1); conditions: guinea pig, read-out: effectiveness (α)
# [11] = test system: α1 receptor; conditions: background statement; cited from earlier work
# [12] = after oral administration of the racemate
# [13] = test system: plasma and tissular esterases; conditions: after administration through different routes (oral, transdermal); cited from earlier work
# [14] = Diffraction studies of crystal modifications; conditions: temperature dependent
# [15] = test system: anaesthetized normotensive rats; assay: Arterial pressure in anaesthetized normotensive rats, intravenous infusion; type: in vivo, rat; conditions: intravenous infusion for 30 min
# Description: In anaesthetized normotensive rats with recording of the arterial pressure, the effects induced by intravenous infusion for 30 min of CHF 1024 enantiomers compared with the racemate were evaluated. Control animals only received the vehicle. The results are reported in FIG. 1 as mean values and standard error.
# [16] = test system: conscious spontaneously hypertensive rats; assay: Arterial pressure and heart rate in conscious spontaneously hypertensive rats (telemetry); type: in vivo, rat; conditions: for recovery to basal values after treatment: after interruption of s.c. treatment; for effect on heart rate (words, summary): subcutaneous administration for 7 days
# [17] = rat striatum, [3H]-SCH23390, read-out: Ki
# [18] = rat lung, [3H]-(−)dihydroalprenolol, read-out: Ki
# [19] = EC50 in M, guinea-pig tracheal strips, read-out: pD2 (−log EC50) (converted)
# [20] = higher dose (6 nmol/kg/min) s.c., 7 days
# Central DA2-receptor, sequence (P61169 whole entry): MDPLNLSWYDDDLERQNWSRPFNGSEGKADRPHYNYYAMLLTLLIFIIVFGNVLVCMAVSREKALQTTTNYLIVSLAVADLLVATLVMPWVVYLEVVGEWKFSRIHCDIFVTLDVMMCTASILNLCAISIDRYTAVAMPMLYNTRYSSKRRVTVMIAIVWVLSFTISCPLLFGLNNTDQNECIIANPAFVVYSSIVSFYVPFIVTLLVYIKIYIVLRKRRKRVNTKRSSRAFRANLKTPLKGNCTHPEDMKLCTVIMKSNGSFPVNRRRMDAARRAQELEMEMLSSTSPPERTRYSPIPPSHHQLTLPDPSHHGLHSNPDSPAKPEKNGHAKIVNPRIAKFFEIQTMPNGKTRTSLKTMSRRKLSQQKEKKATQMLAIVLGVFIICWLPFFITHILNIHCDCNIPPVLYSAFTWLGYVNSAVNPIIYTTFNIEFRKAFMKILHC
# T2 sequence (P18090 whole entry): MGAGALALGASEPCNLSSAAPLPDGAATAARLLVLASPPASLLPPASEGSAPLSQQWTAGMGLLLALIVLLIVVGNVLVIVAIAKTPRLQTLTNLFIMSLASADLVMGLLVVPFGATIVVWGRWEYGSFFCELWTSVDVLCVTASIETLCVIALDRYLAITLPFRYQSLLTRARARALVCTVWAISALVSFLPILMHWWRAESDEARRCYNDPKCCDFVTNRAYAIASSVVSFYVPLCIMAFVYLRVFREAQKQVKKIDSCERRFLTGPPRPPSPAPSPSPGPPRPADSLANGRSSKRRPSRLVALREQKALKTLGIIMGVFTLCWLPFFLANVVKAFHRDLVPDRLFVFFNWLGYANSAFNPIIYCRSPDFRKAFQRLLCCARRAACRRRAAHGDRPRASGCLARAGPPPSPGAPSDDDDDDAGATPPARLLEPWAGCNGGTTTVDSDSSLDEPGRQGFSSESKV
# T4 sequence (Q8K4Z4 whole entry): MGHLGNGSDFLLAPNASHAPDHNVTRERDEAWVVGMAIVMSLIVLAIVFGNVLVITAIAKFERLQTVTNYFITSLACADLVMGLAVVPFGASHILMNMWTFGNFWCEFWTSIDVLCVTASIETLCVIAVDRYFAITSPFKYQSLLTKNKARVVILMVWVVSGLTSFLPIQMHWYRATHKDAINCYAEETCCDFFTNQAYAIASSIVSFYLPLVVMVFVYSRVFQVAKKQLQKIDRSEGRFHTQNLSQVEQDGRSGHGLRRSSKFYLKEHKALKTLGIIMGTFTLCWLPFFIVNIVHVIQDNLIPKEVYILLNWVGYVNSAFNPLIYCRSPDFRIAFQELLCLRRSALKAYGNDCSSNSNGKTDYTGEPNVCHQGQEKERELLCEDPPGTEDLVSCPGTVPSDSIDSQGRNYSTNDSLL
# T3 sequence (P10608 whole entry): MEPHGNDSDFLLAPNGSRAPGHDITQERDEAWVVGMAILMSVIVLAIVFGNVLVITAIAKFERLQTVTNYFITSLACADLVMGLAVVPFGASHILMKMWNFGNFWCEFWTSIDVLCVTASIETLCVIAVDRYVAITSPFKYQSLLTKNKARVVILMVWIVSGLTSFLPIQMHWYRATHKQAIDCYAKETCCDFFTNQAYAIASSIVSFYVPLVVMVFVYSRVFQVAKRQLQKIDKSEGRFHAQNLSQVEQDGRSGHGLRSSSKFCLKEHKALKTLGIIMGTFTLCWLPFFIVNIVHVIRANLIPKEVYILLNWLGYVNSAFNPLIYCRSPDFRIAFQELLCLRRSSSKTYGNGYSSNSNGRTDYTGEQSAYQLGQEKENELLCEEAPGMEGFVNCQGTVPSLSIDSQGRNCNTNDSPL
# β1-receptor (Cavia porcellus, UniProt H0W3H1), sequence (H0W3H1 1-470): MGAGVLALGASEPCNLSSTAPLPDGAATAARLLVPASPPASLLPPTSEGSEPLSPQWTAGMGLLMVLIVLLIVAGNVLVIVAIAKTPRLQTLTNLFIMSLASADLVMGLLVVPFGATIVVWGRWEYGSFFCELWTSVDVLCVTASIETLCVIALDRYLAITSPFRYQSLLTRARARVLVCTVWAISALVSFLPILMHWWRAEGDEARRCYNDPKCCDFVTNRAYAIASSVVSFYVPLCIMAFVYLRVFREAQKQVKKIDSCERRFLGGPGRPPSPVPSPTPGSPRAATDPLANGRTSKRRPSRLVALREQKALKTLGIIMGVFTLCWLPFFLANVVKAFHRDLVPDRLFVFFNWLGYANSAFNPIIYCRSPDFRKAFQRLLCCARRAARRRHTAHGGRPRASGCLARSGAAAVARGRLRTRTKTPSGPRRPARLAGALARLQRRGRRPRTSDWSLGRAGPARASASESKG
# T1 sequence (P18901 whole entry): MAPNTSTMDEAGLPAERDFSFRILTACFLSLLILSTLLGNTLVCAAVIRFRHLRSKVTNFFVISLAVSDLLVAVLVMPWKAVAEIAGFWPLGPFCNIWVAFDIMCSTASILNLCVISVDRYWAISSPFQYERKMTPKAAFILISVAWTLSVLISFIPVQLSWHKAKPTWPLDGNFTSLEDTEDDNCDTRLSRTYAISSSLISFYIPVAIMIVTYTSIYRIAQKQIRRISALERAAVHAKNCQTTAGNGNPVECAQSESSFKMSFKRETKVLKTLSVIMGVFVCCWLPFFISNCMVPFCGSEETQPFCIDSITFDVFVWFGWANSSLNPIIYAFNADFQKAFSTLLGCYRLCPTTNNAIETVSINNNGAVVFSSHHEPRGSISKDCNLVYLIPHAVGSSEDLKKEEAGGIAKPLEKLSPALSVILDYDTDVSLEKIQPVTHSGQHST
# Pre-synaptic DA2 receptor, sequence (G1T1Q0 1-443): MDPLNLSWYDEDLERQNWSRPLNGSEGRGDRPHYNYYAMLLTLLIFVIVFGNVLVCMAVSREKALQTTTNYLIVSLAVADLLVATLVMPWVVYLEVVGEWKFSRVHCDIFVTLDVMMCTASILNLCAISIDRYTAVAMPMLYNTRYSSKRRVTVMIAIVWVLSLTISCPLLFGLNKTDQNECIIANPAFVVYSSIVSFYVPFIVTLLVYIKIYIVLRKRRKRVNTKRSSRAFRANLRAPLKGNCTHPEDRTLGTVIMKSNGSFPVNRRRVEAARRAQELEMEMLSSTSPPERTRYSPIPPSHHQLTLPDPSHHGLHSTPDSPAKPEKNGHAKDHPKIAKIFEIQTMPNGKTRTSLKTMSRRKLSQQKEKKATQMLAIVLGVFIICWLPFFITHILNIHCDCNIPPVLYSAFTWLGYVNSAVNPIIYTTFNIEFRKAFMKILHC
Compound,Ki [3],Ki [4],Emax [7],pD2 (−log EC50) ([8]; rabbit ear artery),effectiveness (α) ([8]; rabbit ear artery),effectiveness (α) ([9]; guinea-pig tracheal strips),Emax [10],structural rearrangement of the crystal form (polymorphic stability) [14],"Ki [1, 17]",Ki [2],"Ki [5, 18]","Ki [6, 18]","EC50 [9, 19]",effect on arterial pressure (hypotensive response) [15],"effect on heart rate ([16]; 3 nmol/kg/min s.c., 7 days)",recovery to basal values after treatment [16],"effect on heart rate (words, summary) [16]",further results
"CNC1CCc2c(ccc(O)c2O)C1 (racemic) [CHF 1024, (±)-5,6-dihydroxy-2-methylaminotetralin, reference compound]",16000 nM,260 nM,96%,9.0,0.94,0.96,81%,–,–,–,–,–,–,–,–,–,–,Ki [1]: 13000 nM; Ki ([2]; read-out: Ki): 290 nM; Ki [5]: 45000 nM; Ki [6]: 1500 nM; EC50 [9]: 251 nM; agonist activity on α1 receptor [11]: negligible
"CNC1CCc2c(ccc(OC(=O)C(C)C)c2OC(=O)C(C)C)C1 (racemic) [CHF 1035, (±)-(R,S)-5,6-Diisobutyroyloxy-2-methylaminotetralin]",–,–,–,–,–,–,–,form I shows two remarkable structural rearrangements,–,–,–,–,–,–,–,–,–,AUC of the dextro form relative to that of the laevo form [12]: about one half; conversion into the desesterified form CHF 1024 [13]: quickly and completely converted
"CN[C@H]1CCc2c(ccc(OC(=O)C(C)C)c2OC(=O)C(C)C)C1.Cl [CHF 1810, (−)-(S)-5,6-diisobutyroyloxy-2-methylaminotetralin hydrochloride]",–,–,–,–,–,–,–,does not show any structural rearrangement below 100 °C,–,–,–,–,–,–,–,–,–,–
CN[C@@H]1CCc2c(ccc(O)c2O)C1 [CHF 1869],21000 nM,1600 nM,87%,<5.0,0.92,0.97,83%,–,7400 nM,2400 nM,90000 nM,1400 nM,251 nM,rapid onset and disappearance of the hypotensive effects; also recorded: more rapid but less lasting response,no reduction of heart rate,faster than with CHF 1870,no reduction of heart rate,"activity on α2 and DA2 receptors ([8]; isolated tissue preparations): poor activity on α2 and DA2 receptors; hypotensive effect ([16]; 3 nmol/kg/min s.c., 7 days): slight, although noticeable, hypotensive effect; effect on heart rate [16, 20]: no reduction of heart rate is observed, which even increases during the first 2-3 days of treatment; hypotensive response [16, 20]: comparable to that caused by its optical antipode"
"CN[C@H]1CCc2c(ccc(O)c2O)C1 [CHF 1870, (−)-(S)-5,6-dihydroxy-2-methylaminotetralin]",15000 nM,130 nM,91%,9.6,0.92,0.97,91%,–,6800 nM,120 nM,40000 nM,1000 nM,398 nM,dose-dependent reduction of the arterial pressure which was maintained even after infusion was discontinued; also recorded: hypotensive response slightly lower but remarkably longer-lasting than that of the racemate,greater reduction of heart rate compared with the racemate,took place more slowly,more marked reduction of heart rate than an equivalent dose of the racemate,"affinity for DA2-dopaminergic receptors relative to the dextro enantiomer (CHF 1869) ([2]; from Table 1): about 20 times; affinity for α2-adrenergic receptors relative to the dextro enantiomer (CHF 1869) ([4]; from Table 1): ~10 times; potency relative to its optical antipode ([8]; rabbit ear artery): at least 10000 times; reduction of arterial pressure ([16]; 3 nmol/kg/min s.c. osmotic minipump, 7 days): 20-30 mmHg; reduction of heart rate [16, 20]: about 70 beats/minute"

# — patent publication US20040102652A1, “Optically active2-aminotetralin derivatives, the processes for the preparation thereof and the therapeutical use of pharmaceutical compositions containing them” (priority 2000, published 2004)
